Data: patent US11767305B2, “Advantageous benzofuran compositions for mental disorders or enhancement” (Tactogen Inc, priority 2020, dated 2023)

Legend:
SERT = SERT (Homo sapiens (Human), UniProt P31645); details: read-out: IC50 inhibiting reuptake at SERT; cited from earlier work
DAT = DAT (Homo sapiens (Human), UniProt Q01959); details: read-out: IC50 inhibiting reuptake at DAT; cited from earlier work
5-HT1B = 5-HT1B (Homo sapiens (Human), UniProt P28222); details: cited from earlier work
[1] = target: T1, serotonin (5-HT) transporter (SERT) (Rattus norvegicus (Rat), UniProt P31652); assay: Rat synaptosome SERT [3H]5-HT uptake inhibition assay; details: Inhibition of [3H]5-HT Uptake at SERT IC50 (nM), 5 nM [3H]5-HT
neuritogenesis = details: cited from earlier work
[2] = target: T1, serotonin (5-HT) transporter (SERT); assay: Rat synaptosome SERT [3H]5-HT release assay; details: [3H]5-HT release via SERT EC50 (nM), 5 nM [3H]5-HT

Sequence of 5-HT1B (P28222 whole entry, looked up, species assumed): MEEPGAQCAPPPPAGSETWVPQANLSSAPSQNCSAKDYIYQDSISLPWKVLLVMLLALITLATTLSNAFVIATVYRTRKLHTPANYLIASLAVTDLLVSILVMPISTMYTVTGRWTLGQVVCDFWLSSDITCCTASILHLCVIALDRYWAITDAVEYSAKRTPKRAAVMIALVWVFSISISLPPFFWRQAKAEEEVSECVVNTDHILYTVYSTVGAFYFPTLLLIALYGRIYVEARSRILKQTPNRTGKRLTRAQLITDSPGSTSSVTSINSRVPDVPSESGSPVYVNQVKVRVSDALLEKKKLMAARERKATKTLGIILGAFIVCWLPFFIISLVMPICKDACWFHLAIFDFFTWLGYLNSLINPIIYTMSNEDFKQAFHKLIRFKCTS

SMILES	IC50 (SERT) [nM]	IC50 (DAT) [nM]	binding to 5-HT1B (5-HT1B)	IC50 [1] [nM]	EC50 (neuritogenesis; read-out: EC50 for promoting neuritogenesis) [nM]	Emax for promoting neuritogenesis (neuritogenesis; relative to ketamine)	EC50 [2] [nM]
CNC(C)Cc1ccc2occc2c1 (racemic) [racemic 5-MAPB, 1-(benzofuran-5-yl)-N-methylpropan-2-amine]	8500	3100					
CNC(C)Cc1ccc2c(c1)OCO2 (stereo not shown) [MDMA]			does not bind directly	384 ± 32.8	7.41	approximately twice that of ketamine	94.3 ± 13.6
